Source: ChEMBL document CHEMBL1201862, “PubChem BioAssay data set” (2004)
The source made the active and inactive calls.

Legend:
[1] = molecular target: DNA dC->dU-editing enzyme APOBEC-3G (Homo sapiens, UniProt Q9HC16); assay: Dose Response confirmation of small molecule APOBEC3G DNA Deaminase Inhibitors via a fluorescence-based single-stranded DNA deaminase assay. [Related pubchem assays (depositor defined):AID493012, AID493028]; type: functional
cells = type: functional, cell-based
[2] = molecular target: T1, Eukaryotic translation initiation factor 2-alpha kinase 3 (Homo sapiens, UniProt Q9NZJ5); assay: Counterscreen assay for PERK inhibitors: Dose response cell-based high throughput screening assay to measure inhibition of PERK at 6 hours. [Related pubchem assays: 1522, 1416 ]; type: functional
T1 sequence (Q9NZJ5 whole entry): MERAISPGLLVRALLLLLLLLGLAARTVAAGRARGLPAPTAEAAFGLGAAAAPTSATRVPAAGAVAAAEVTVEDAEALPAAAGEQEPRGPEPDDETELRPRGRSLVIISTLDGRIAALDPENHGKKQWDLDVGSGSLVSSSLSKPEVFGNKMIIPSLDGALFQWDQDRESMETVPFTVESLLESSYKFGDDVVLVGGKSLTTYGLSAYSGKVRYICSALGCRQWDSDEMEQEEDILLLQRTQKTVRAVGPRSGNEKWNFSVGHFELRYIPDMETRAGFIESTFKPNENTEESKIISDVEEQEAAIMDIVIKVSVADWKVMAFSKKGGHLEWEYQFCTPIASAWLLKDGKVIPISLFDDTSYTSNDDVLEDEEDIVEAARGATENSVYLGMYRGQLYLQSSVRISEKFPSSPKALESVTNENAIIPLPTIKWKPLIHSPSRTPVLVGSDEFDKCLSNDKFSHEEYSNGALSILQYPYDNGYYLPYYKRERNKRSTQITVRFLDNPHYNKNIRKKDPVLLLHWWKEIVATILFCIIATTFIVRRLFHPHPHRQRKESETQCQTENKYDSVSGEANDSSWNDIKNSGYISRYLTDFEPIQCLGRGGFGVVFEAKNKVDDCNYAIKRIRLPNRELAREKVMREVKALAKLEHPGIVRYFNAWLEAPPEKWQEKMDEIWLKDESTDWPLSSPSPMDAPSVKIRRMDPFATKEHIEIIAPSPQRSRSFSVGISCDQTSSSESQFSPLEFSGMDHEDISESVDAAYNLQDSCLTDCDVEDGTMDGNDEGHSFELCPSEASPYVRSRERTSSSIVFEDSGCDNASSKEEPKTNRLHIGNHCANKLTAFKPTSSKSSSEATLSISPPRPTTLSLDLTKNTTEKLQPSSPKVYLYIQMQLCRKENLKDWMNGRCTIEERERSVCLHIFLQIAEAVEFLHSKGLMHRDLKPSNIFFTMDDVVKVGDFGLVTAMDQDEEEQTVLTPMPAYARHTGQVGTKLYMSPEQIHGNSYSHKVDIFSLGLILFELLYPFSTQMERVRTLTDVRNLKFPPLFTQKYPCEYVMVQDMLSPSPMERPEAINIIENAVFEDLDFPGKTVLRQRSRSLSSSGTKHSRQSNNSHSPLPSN

[3] = molecular target: T1, Eukaryotic translation initiation factor 2-alpha kinase 3; assay: Dose response cell-based high-throughput screening assay to measure PERK inhibition. [Related pubchem assays: 1416 ]; type: functional
H4 = assay: Luminescence Cell-Based Dose Response HTS to Identify Activators of 5'UTR Stem-Loop Driven Prion Protein mRNA Translation in H4 Neuroglioblastoma Cells. [Related pubchem assays: 1829 (Project Summary), 1814 (Primary HTS)]; type: functional; conditions: Homo sapiens
[4] = molecular target: T2, Endoribonuclease toxin MazF (Escherichia coli K-12, UniProt P0AE70); assay: fluorescent RNA oligo signal without MazF, dose response, counter-screen for MazEF activator project, biochemical, fluorescence, single-stranded RNase substrate (AID 588502); type: functional
T2 sequence (P0AE70 whole entry): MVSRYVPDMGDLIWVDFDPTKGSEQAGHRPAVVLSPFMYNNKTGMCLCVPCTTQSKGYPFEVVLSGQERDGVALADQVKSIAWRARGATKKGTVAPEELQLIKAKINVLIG

HeLa = assay: HeLa cell cytotoxicity, dose response, cytotoxicity control, 24 h, cherry-picked samples (AID 504726); type: functional, cell-based; conditions: Homo sapiens;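 note: potency for cytotoxicity as loss of luminescence signal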
[5] = molecular target: T2, Endoribonuclease toxin MazF; assay: MazF toxin RNase activators, dose response, biochemical, fluorescence, single-stranded RNA substrate, uHTS hits (AID 588481); type: functional
[6] = Luminescence Cell-Based Dose Confirmation HTS to Identify Activators of 5'UTR Stem-Loop Driven Alpha-Synuclein mRNA Translation in H4 Neuroglioblastoma Cells. [Related pubchem assays: 1829 (Project Summary), 1814 (Primary HTS)]; type: functional
[7] = molecular target: T3, Oxysterols receptor LXR-beta (Homo sapiens, UniProt P55055); type: functional, cell-based;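 note: agonist activity at LXR measured by a cell-based luminescence readout across a dose range, run as a counterscreen for daf-12 agonists; HEK293 cells with Gal4-LXR fusion and GAL4-driven luciferase reporter; potency for activation of Gal4-LXR reporter so compounds are agonists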
T3 sequence (P55055 whole entry): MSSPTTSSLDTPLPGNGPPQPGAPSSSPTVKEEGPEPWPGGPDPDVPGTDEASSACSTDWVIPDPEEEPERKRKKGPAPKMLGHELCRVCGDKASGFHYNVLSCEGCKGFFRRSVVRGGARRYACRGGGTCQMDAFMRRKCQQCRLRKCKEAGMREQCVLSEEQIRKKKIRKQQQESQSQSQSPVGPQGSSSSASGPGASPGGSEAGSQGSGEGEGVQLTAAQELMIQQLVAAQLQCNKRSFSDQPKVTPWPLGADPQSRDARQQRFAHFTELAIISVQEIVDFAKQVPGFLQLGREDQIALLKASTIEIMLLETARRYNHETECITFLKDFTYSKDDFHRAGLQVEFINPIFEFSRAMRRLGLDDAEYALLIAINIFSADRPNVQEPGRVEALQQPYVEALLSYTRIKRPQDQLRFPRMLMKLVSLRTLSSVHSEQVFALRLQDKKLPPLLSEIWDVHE

[8] = Luminescence Cell-Based Dose Response HTS to Identify Activators of Luciferase Translation or Activity in H4 […] Cells. [Related pubchem assays: 1829 (Project Summary), 1814 (Primary HTS)]; type: functional
[9] = molecular target: Heat shock 70 kDa protein 1A (Homo sapiens, UniProt P0DMV8); assay: Hsp70 inhibitors, SAR follow-up, biochemical, fluorescence polarization (AID 1072)
Sequence of Heat shock 70 kDa protein 1A (P0DMV8 whole entry): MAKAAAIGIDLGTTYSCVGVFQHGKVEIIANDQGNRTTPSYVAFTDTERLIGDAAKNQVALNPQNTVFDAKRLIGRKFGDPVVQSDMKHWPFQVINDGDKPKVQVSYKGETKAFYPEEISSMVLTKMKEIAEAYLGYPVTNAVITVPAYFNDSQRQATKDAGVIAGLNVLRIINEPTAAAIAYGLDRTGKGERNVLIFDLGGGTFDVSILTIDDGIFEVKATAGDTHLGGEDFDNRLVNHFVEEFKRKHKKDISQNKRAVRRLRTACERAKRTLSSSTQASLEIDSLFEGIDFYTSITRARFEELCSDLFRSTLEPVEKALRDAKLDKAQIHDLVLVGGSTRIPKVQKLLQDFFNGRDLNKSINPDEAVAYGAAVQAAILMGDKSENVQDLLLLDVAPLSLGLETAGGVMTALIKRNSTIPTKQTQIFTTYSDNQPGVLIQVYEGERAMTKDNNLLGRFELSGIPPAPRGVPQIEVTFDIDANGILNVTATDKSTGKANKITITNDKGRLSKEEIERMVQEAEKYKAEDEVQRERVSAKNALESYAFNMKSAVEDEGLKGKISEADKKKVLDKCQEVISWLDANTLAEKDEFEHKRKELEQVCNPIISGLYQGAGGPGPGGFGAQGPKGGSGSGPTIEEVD

[10] = molecular target: Heat shock cognate 71 kDa protein (Homo sapiens, UniProt P11142); assay: In Vitro Hsc70 Dose Response Fluorescence Polarization Assay. [Related pubchem assays: 1072 ]
Sequence of Heat shock cognate 71 kDa protein (P11142 whole entry): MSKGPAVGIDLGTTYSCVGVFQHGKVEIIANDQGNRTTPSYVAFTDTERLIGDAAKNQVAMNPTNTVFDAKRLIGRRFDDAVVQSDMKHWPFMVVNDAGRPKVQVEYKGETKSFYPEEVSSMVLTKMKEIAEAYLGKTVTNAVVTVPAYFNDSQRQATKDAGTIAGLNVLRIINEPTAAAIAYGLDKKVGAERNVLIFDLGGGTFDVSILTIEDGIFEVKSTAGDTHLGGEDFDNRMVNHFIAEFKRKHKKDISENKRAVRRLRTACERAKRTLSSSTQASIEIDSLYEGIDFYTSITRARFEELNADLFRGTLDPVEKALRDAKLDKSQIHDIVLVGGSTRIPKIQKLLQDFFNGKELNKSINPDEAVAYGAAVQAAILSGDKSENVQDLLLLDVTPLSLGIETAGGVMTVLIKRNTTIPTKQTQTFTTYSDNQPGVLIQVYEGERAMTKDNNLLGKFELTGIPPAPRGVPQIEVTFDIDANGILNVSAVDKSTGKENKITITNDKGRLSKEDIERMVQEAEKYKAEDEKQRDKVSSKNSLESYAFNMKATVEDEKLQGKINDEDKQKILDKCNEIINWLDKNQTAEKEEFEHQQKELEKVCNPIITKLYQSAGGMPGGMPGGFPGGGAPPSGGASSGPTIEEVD

[11] = molecular target: T4, Dual specificity protein phosphatase 6 (Rattus norvegicus, UniProt Q64346); type: functional
T4 sequence (Q64346 whole entry): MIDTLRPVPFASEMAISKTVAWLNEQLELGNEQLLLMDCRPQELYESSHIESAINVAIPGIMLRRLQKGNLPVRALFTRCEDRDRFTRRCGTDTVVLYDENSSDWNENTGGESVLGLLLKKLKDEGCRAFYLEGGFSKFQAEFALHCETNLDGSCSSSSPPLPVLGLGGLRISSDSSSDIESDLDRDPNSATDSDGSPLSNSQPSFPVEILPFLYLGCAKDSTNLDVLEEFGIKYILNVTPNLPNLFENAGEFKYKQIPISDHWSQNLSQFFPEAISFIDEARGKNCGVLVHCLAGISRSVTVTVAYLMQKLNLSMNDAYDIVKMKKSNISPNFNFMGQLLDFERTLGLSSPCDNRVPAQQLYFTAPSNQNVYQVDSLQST

[12] = molecular target: T4, Dual specificity protein phosphatase 6
[13] = molecular target: T5, Tyrosine-protein phosphatase non-receptor type 7 (Homo sapiens, UniProt P35236); type: functional
T5 sequence (P35236 whole entry): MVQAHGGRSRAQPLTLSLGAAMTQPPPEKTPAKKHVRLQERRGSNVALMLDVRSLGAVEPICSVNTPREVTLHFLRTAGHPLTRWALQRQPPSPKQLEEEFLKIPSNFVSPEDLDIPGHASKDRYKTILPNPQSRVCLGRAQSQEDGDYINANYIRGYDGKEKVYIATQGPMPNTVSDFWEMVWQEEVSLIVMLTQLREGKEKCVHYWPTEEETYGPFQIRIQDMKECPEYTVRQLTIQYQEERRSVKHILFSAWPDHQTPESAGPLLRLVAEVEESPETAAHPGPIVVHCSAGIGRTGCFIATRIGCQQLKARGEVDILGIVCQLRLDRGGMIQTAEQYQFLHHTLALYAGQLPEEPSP

[14] = molecular target: Glyceraldehyde-3-phosphate dehydrogenase (Homo sapiens, UniProt P04406)
Sequence of Glyceraldehyde-3-phosphate dehydrogenase (P04406 whole entry): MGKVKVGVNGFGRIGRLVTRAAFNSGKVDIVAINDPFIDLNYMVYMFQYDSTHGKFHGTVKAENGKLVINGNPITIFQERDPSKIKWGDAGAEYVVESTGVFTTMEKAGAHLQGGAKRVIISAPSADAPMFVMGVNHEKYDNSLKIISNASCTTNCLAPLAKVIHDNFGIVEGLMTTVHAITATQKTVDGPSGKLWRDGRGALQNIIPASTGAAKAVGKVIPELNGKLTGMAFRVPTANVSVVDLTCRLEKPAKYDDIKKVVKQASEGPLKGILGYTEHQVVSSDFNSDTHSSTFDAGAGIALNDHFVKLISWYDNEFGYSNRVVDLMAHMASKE

[15] = molecular target: Voltage-dependent T-type calcium channel subunit alpha-1H (Homo sapiens, UniProt O95180); type: functional;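 note: channel activity triggered by adding a high calcium stimulation buffer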
Sequence of Voltage-dependent T-type calcium channel subunit alpha-1H (O95180 whole entry): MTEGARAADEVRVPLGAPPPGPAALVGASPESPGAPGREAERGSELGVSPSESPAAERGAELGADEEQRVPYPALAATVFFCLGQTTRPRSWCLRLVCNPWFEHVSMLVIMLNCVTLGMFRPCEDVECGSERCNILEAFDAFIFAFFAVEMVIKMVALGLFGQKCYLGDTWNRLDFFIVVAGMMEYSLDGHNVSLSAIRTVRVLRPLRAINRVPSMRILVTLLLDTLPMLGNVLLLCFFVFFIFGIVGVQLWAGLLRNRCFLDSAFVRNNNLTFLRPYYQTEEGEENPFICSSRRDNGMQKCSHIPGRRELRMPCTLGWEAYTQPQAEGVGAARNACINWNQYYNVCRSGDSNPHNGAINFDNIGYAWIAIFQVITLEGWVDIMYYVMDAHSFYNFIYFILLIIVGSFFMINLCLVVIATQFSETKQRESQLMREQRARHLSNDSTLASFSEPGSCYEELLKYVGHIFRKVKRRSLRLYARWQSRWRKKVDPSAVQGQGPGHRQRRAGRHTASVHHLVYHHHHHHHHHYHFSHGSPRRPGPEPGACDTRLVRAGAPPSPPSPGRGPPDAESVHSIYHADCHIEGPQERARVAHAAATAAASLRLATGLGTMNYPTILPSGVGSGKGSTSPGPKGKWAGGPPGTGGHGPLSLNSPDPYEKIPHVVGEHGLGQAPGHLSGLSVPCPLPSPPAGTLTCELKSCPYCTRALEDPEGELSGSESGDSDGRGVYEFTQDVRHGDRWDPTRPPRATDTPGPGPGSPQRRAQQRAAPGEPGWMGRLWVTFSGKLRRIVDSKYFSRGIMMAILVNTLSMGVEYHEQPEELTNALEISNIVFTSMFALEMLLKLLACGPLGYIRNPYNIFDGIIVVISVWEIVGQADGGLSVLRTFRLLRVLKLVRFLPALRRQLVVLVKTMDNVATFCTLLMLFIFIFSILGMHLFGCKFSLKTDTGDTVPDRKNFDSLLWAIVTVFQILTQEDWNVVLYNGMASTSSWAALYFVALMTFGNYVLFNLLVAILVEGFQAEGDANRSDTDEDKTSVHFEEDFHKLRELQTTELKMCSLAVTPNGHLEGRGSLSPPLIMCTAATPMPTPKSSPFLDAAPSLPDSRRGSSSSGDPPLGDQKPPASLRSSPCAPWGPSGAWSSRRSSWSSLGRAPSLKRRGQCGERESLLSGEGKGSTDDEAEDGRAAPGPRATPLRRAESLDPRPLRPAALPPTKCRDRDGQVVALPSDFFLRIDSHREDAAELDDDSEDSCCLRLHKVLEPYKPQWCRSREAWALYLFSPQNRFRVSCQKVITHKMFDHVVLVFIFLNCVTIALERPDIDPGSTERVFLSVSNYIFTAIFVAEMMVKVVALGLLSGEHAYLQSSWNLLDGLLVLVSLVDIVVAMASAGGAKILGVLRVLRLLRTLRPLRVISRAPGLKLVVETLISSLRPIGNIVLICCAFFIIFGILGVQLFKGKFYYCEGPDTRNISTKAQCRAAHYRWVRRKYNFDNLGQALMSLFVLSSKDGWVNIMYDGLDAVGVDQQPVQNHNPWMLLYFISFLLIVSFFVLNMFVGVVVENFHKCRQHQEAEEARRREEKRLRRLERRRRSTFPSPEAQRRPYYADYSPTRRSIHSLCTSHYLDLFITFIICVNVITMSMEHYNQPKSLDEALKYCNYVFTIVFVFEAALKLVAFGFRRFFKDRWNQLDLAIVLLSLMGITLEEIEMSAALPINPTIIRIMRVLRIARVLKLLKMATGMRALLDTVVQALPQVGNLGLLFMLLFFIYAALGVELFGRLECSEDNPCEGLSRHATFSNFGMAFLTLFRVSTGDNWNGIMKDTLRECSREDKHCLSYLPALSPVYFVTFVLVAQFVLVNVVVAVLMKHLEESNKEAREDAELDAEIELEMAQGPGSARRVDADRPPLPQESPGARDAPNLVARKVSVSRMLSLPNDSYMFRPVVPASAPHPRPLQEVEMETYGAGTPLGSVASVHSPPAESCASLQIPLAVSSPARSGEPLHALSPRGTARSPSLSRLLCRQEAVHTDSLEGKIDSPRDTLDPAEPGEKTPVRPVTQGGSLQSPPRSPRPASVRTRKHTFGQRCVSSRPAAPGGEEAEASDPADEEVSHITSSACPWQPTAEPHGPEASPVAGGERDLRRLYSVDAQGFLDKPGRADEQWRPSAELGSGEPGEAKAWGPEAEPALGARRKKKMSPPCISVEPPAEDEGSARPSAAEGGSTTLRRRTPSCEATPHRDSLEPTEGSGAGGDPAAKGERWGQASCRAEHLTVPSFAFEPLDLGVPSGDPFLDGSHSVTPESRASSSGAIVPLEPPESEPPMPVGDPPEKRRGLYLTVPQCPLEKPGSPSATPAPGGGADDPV

X-box-binding protein 1 = X-box-binding protein 1 (Homo sapiens, UniProt P17861); type: functional, Cricetulus griseus;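 note: confirmatory dose-response counter-screen serving a CHOP assay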
[16] = Artemis endonuclease inhibitor potency, dose response, biochemical, fluorescence intensity (AID 720701); type: functional;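 note: Artemis endonuclease enzyme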
[17] = molecular target: T6, Alkaline phosphatase, tissue-nonspecific isozyme (Homo sapiens, UniProt P05186)
T6 sequence (P05186 whole entry): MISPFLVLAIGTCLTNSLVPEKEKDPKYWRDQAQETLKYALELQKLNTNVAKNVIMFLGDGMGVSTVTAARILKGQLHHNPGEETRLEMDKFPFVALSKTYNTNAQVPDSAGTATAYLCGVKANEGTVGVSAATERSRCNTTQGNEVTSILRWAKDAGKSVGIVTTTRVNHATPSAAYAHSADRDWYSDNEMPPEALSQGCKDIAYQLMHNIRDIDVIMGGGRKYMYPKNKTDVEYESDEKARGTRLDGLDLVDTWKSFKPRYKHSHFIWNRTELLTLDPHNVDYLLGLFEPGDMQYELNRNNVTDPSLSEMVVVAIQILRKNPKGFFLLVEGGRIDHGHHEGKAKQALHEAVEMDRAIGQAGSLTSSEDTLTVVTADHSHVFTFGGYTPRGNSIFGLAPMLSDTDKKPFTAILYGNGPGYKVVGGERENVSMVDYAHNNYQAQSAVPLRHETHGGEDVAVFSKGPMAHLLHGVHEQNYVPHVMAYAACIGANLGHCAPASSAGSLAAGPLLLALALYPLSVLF

[18] = molecular target: G-protein coupled receptor 55 (Homo sapiens, UniProt Q9Y2T6); assay: GPR55 antagonists blocking LPI-driven arrestin recruitment, primary screen, imaging, U2OS, beta-arrestin-GFP, LPI agonist (AID 2013); type: functional;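 note: antagonist potency measured as reduced agonist-driven arrestin aggregation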
Sequence of G-protein coupled receptor 55 (Q9Y2T6 whole entry): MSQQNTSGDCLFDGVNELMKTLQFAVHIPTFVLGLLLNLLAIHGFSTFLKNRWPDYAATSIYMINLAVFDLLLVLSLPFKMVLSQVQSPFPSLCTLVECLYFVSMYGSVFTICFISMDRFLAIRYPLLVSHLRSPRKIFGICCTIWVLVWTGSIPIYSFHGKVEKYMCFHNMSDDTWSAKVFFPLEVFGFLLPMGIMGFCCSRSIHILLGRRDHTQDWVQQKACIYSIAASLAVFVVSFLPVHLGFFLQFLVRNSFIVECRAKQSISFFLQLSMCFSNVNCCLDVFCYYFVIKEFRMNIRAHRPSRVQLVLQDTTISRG

[19] = Luminescence Cell-Based Dose Retest to Confirm Inhibitors of Cancer Stem Cells. [Related pubchem assays (depositor defined):AID2717, AID2721]; type: functional; conditions: Homo sapiens
[20] = molecular target: Heat shock protein HSP 90-alpha (Homo sapiens, UniProt P07900); type: functional, organism-based
Beta-galactosidase = Beta-galactosidase (Escherichia coli, UniProt Q8VNN2); assay: beta-galactosidase enzyme inhibitors and activators, dose response, artefact control for CCR6 antagonist project, biochemical, E. coli enzyme, set 3 (AID 504712); type: functional
[21] = molecular target: Polyadenylate-binding protein 1 (Homo sapiens, UniProt P11940); assay: PABP poly(A) RNA binding inhibitors, primary screen, biochemical, fluorescence polarization, uHTS (AID 2014)
[22] = molecular target: Eukaryotic translation initiation factor 4H (Homo sapiens, UniProt Q15056); assay: human eIF4H binding inhibitors, primary screen, translation initiation inhibitor project, biochemical, uHTS, fluorescence polarization (AID 2012)
Paired box protein Pax-8 = Paired box protein Pax-8 (Homo sapiens, UniProt Q06710); assay: inhibitors of PAX8-driven TPO luciferase reporter, dose response, RMG-I cells, cherry-pick (AID 687027); type: functional, cell-based;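 note: luciferase reporter driven by Pax8 target thyroperoxidase promoter measured by SteadyGlo luminescence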

Sequence of DNA dC->dU-editing enzyme APOBEC-3G (Q9HC16 whole entry): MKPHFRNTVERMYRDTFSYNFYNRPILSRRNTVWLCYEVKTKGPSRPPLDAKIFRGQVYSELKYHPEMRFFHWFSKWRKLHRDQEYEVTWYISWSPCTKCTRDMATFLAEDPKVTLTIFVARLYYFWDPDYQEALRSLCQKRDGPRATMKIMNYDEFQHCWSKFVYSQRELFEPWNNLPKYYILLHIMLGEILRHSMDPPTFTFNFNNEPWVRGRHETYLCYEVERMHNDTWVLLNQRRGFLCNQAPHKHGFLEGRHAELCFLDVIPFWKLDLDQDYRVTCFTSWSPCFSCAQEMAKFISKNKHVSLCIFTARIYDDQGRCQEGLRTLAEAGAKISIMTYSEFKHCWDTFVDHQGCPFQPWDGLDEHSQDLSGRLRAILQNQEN

For CSc1nc2c(c(=O)[nH]c(=O)n2C)n1Cc1ccc(Cl)cc1, the IC50 [1] was 65.2 µM (active).
For Cc1ccc(-c2cc(N)n(-c3ccc(F)cc3)n2)cc1, the EC50 (cells) was > 350 µM (not active), the EC50 [2] was > 55.7 µM (not active) and the EC50 [3] was > 55.7 µM (not active).
For Oc1[nH]c2ccccc2c1N=Nc1ccccc1F, the EC50 (H4) was > 120 µM (not active), the EC50 [4] was 31.7 µM (inactive) and the AC50 (HeLa) was 100 µM (active). For the same compound, the EC50 [5] was > 99 µM (inactive), the EC50 [6] was 4.39 µM (active) and the EC50 [7] was > 67.6 µM (inactive). For the same compound, the EC50 [8] was 8.29 µM (active).
For CC(C)COC(=O)c1ccc2c(c1)C1C=CCC1C(C(=O)O)N2 (configuration not stated), the IC50 [9] was 32.5 µM (active), the IC50 [10] was 164 µM (active) and the IC50 [11] was 55.8 µM (active). For the same compound, the IC50 [12] was 48.2 µM (active), the IC50 [13] was 44.8 µM (active) and the IC50 [14] was 87.3 µM (active).
With NS(=O)(=O)c1ccc2c(c1)C1C=CCC1C(C(=O)O)N2 (configuration not stated) the IC50 [9] was 1.97 µM (active), the IC50 [10] was > 100 µM (not active) and the IC50 [11] was > 100 µM (inactive). The IC50 [12] was > 100 µM (inactive), the IC50 [13] was 47.3 µM (active) and the IC50 [14] was 62.2 µM (active).
With C[C@@H](C(=O)Nc1ccc2ccccc2c1)[C@@H]1C[C@@]1(C)[C@@H](NC(=O)c1ccccc1)c1ccccc1 the EC50 [15] was 2.95 µM (active).
In the case of CC(C)Cc1cc(C(=O)NCc2cccs2)no1, the EC50 [2] is reported as > 55.7 µM (not active) and the EC50 [3] is reported as > 55.7 µM (not active).
With CC(C)Cn1c2c(c(=O)[nH]c1=O)C(C(F)(F)F)(C(F)(F)F)NC(CCC1CCCCC1)=N2 the “Absolute IC50 (XBP1)” value (X-box-binding protein 1) was 10 µM.
For Cn1cccc1Cc1nnc(SCC(=O)Nc2ccc(F)cc2F)n1-c1ccc(F)cc1, the EC50 [15] was 4.6 µM (active).
For c1ccc(-c2c(-c3ccccc3)n(Cc3ccco3)c3ncnc(NCCCn4ccnc4)c23)cc1, the IC50 [16] was 17.8 µM (active), the EC50 [17] was 63 µM (not active) and the IC50 [18] was 2.09 µM (active). The AC50 [19] was 5.23 µM (active) and the AC50 [20] was 2.53 µM (active).
With O=c1c2cccc(Cl)c2nc2n1Cc1ccccc1-2 the EC50 (H4) was > 120 µM (not active), the EC50 [6] was 23.4 µM (active) and the IC50 [1] was 27.4 µM (active). The EC50 [8] was 64.2 µM (active).
For CC(C)c1ccc(O)c(NC(=S)NC(=O)c2ccc3c(c2)OCO3)c1, the IC50 (Beta-galactosidase) was > 66.6 µM (inactive).
With CCCCc1ccc(NC(=S)NCCc2ccc(S(N)(=O)=O)cc2)cc1 the EC50 [17] was > 100 µM (not active).
For C[C@H](NC(=O)c1ccco1)C(=O)Nc1cccc([N+](=O)[O-])c1, the IC50 [21] was > 100 µM (inactive), the IC50 [22] was > 100 µM (inactive) and the AC50 (Paired box protein Pax-8) was 59.2 µM (active).
